Experimental data as given in patent publication US7148250B2, “Indoles as NAALADase inhibitors” (Guilford Pharmaceuticals Inc., priority 2001, dated 2006).

Tests used:
[1] = system: transgenic HD mice of the N171-82Q strain; assay: Transgenic mouse model of Huntington's disease (rotarod, locomotion, survival); assay type: in vivo
Experimental: Transgenic HD mice of the N171-82Q strain and non-transgenic littermates were treated with NAALADase inhibitor Compound B (30 mg/kg) or a vehicle from 10 weeks of age. The mice were placed on a rotating rod (“rotarod”). The length of time at which the mouse fell off the rotarod was recorded as a measure of motor coordination. […] The treatment with Compound B had no effect on the rotarod performance of normal non-HD mice.
The total distance traveled by the mice was also recorded as a measure of overall locomotion.
The effects of Compound B and vehicle on the survival of transgenic HD mice (N171-82Q) were evaluated. Thirteen mice (six male and seven female) were assigned to the Compound B treatment group, and fourteen mice (six male and eight female) were assigned to the vehicle treatment group. Treatment was continued until all the mice died.

[2] = system: Brown Norway rats with unilateral elevation of intraocular pressure; assay: Experimental rat glaucoma (IOP elevation), optic nerve fiber counting; assay type: in vivo; conditions: 10 mg/kg i.p. daily
Experimental: All experiments complied with the Association for Research in Vision and Ophthalmology Statement for the Use of Animals in Ophthalmic and Vision Research. 82 male Brown Norway rats (Rattus norvegicus), each weighing approximately 250 gm, were treated using procedures approved by the Animal Care Committee of the Johns Hopkins University School of Medicine. The rats were housed with a 12 hour light/12 hour dark cycle and fed ad libitum.
EXPERIMENTAL GLAUCOMA: Unilateral elevation of intraocular pressure (“IOP”) was produced in 56 rats by microinjection of hypertonic saline into episcleral veins, following procedures described in Morrison, J. et al., IOVS (March 1998) 39:526–531. Beginning on the day of IOP elevation, the rats were treated daily with intraperitoneal injections of either a vehicle (23 rats with 50 mM HEPES-buffered saline) or a NAALADase inhibitor (11 rats with 10 mg/kg of Compound A and 22 rats with 10 mg/kg of Compound B). 11 saline treated rats, 11 Compound A treated rats and 11 Compound B treated rats were sacrificed at 8 weeks, and the remaining rats at 12 weeks, after initial IOP elevation.
OPTIC NERVE COUNTING: The rats were sacrificed by exsanguination under deep pentobarbital anesthesia. They were perfused through the heart with 2% paraformaldehyde/2% glutaraldehyde in 0.1 M phosphate buffer, pH 7.2, and the eyes with attached optic nerves were removed. A cross-section of the optic nerve from both experimental (glaucoma or transection) and control eyes was removed 1.5 mm posterior to the globe, 1 mm in thickness, and post-fixed in 2% osmium tetroxide in buffer. These were processed into epoxy resin, sectioned at 1 micron and stained with toluidine blue.
The area of the optic nerve cross-section was measured by outlining its outer border at 10× magnification on an image analysis system (Universal Imaging Corp., Westchester, Pa.) with Synsys digital camera and Metamorph software. Three area measurements were taken and the mean value was determined. To measure the density and fiber diameter distributions, images were captured with a 100× phase contrast objective from 10 different areas of each nerve. These were edited to eliminate non-neural objects and the size of each axon internal to the myelin sheath (its minimum diameter) and the density of axons/square mm were calculated for each image and nerve. The mean density was multiplied by total nerve area to yield fiber number for each nerve. The total fiber number in glaucoma or transection nerves was compared to the normal, fellow eye of each rat to yield a percent loss value. The number of axons counted among the 10 images was an approximately 20% sample of the 80–90,000 axons in normal rat nerves. The person measuring axon number was masked to the protocol conducted on the nerves.

Structure (SMILES): O=C(O)CCC(CCCS)C(=O)O (centres unmarked) [Compound B, 2-(3-sulfanylpropyl)-pentanedioic acid]
- survival time versus vehicle treated counterparts ([1]; female transgenic HD mice (p-value=0.03)): significantly prolonged survival time
- rotarod performance ([1]; normal non-HD mice, 30 mg/kg): no effect
- median survival time ([1]; transgenic HD mice (N171-82Q), both sexes, not significant versus vehicle (p=0.07)): 184 days
- rotarod performance (time on rotarod) versus vehicle ([1]; transgenic HD mice, 30 mg/kg from 10 weeks of age): stayed longer on the rotarod
- FIBER NUMBER ± SEM ([2]; 8 week group): 80785 ± 2121
- PERCENT DIFFERENCE ± SEM in fiber number between glaucoma and normal eye ([2]; 8 week group, positive = fewer fibers in glaucoma eye): −0.82 ± 2.97%
- FIBER NUMBER ([2]; 12 week group): 90504 ± 1718
- PERCENT DIFFERENCE in fiber number between glaucoma and normal eye ([2]; 12 week group, positive = fewer fibers in glaucoma eye): −3.21 ± 2.86%
